Patent US10280197B2, “Discovery of the first selective C5A receptor 2 (C5L2/C5AR2) ligands” (The Regents of the University of California, priority 2015, dated 2019)

What was measured:
[1] = system: LPS stimulated HMDM; experiment: Cytokine release from LPS stimulated HMDM (ELISA); format: cell-based, human; settings: for IL-6 release from LPS stimulated HMDM / IL-10 release from LPS stimulated HMDM / TNFα release from LPS stimulated HMDM: 24 h after co-stimulation with LPS 10 ng/ml, peptides 0.1-100 μM; for IL-6 release from LPS stimulated HMDM in the presence of PMX53: C5a1 antagonist PMX53 10 μM pre-incubated 30 min
Experimental: FIG. 4 is a panel of graphs showing the testing P32 and P59 for effects on cytokine release from LPS stimulated HMDM. Measurement of human inflammatory cytokines IL-6 (4A, 4B), TNFα (4C, 4D) and IL-10 (4E, 4F) release from HMDM, 24 h after co-stimulation with LPS (10 ngml^−1) and C5a (0.1-100 nM), P32 or P59 (0.1-100 μM) with or without C5a1 antagonist PMX53 (10 μM) present. Cytokine release was quantified by ELISA. Data is representative of five independent HMDM donors performed in triplicate (n=5). CTRL represents non-stimulated HMDM. Data is normalised to LPS response (100%) for each donor. Error bars represent SEM. *P<0.05, ** P<0.01, *** P<0.001, **** P<0.0001 by one-way ANOVA followed by Dunnett's post hoc test or Sidak's post hoc test for comparisons+/−PMX53.
Briefly, HMDMs were seeded in 96 well tissue culture plates (Nunc) at 100 000 cells/well and allowed to adhere overnight at 37° C. and 5% CO2. The next day HMDMs were stimulated with E. coli derived LPS (10 ng ml^−1) only or LPS (10 ng ml^−1) and either C5a or C5a2 ligands at various concentrations (1-100 nM (C5a) or 0.1-100 μM (C5a2 ligands)). For testing cytokine release in the presence of C5a1 antagonist (PMX53), cells were pre-incubated with PMX53 at 10 μM for 30 min prior to addition of C5a or C5a2 ligands. Following ligand addition HMDMs were returned to 37° C. and 5% CO2 incubator and 24 h after stimulation supernatant was removed from cells and transferred to 96 well polypropylene microplate (Nunc) and stored at −20° C. till needed for assay. Quantification of cytokine release was performed using ELISA kits (BD OptEIA™) as per manufacturers' instructions (BD Biosciences, San Jose, Calif., USA).

[2] = biological target: T1, C5aR1 (Homo sapiens, UniProt P21730); experiment: 125I-C5a binding to C5aR1 membranes; settings: up to a maximum concentration of 500 μM
T1 sequence (P21730 1-350): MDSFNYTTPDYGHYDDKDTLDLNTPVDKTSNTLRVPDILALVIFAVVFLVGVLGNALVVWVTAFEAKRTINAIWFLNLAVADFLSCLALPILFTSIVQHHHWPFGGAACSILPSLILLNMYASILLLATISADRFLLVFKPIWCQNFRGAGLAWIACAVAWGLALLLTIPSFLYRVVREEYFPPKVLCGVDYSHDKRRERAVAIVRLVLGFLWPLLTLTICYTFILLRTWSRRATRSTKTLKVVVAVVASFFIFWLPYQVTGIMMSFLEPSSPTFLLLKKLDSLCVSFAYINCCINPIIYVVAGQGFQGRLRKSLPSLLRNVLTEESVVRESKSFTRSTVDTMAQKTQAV

[3] = biological target: T2, C3aR (Homo sapiens, UniProt Q16581); settings: up to a concentration of 100 μM, reference 27; cited from earlier work
T2 sequence (Q16581 1-482): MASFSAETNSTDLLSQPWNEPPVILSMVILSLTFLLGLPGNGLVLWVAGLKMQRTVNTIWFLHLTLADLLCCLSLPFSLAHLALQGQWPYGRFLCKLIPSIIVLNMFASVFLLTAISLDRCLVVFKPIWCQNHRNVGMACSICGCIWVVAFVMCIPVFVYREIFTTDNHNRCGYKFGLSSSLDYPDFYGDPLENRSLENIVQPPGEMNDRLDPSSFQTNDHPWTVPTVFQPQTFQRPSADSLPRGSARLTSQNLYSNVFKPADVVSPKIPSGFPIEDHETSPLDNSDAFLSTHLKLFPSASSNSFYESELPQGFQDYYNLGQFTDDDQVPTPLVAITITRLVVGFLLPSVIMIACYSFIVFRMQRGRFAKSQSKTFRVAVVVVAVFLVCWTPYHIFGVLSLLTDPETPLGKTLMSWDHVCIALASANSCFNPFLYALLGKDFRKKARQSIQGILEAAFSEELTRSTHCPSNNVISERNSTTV

[4] = biological target: T3, C5a1 (Homo sapiens, UniProt P21730); experiment: BRET β-arrestin 2 recruitment by C5a1 in HEK293 cells; format: cell-based; parameters: expressed in transfected cells; host or cells: HEK293 (transient); settings: P32 or P59 100 μM
T3 sequence (P21730 1-350): T1 sequence (P21730 1-350)
Experimental: Assays were performed as a ligand-induced BRET experiment similar to previously described^17, 31, 49. In brief, HEK293 cells were transiently transfected with either C5a1-Rluc8 and β-arrestin 2-Venus or C5a2-Venus and β-arrestin 2-Rluc8 or C5a1-Rluc8 and C5a2-Venus in a 100-mm dish. 24 h after transfection cells were collected and transferred to a 96-well white microplate (Corning, N.Y., USA) in phenol-red free DMEM containing 5% FBS and 25 mM HEPES (Life Technologies). Cells were allowed to settle for 24 h and then were incubated with 30 μM Enduren (Promega, Madison, Wis., USA) for 2 h at 37° C. and 5% CO2 to ensure that the substrate had reached equilibrium. Following incubation BRET baseline measurements were taken for 15 min then ligands were added to plate and BRET measurements were taken for a further 1 h at 37° C. using a POLARstar optima microplate reader (BMG Labtech, Ortenberg, Germany). Filtered light emissions were sequentially measured for 1 s in each of the following windows 460-490 nm and 520-550 nm, both before and following ligand addition. The ligand-induced BRET ratio was calculated by subtracting the ratio of 520-550 nm emission over the 460-490 nm emission for a vehicle-treated sample from a ligand-treated sample of the same aliquot of cells in triplicate. […]

Row | inhibition of 125I-C5a binding to C5aR1 membranes, full concentration response [2] | Substance | IL-6 release from LPS stimulated HMDM [1] | IL-10 release from LPS stimulated HMDM [1] | TNFα release from LPS stimulated HMDM [1] | IL-6 release from LPS stimulated HMDM in the presence of PMX53 [1] | activity (agonist or antagonist) at C3aR [3] | β-arrestin 2 recruitment via C5a1 [4]
1 | dose-dependently inhibited | Ac-LIRLWR-OH [Peptide P59, Ac-LIRLWR-OH] | only showed significant inhibition of IL-6 at 100 μM | no effect | no effect | unaffected | no activity | Neither, P32 or P59 could recruit β-arrestin 2 via C5a1
2 | dose-dependently inhibited | Ac-RHYPYWR-OH [Peptide P32, Ac-RHYPYWR-OH] | significant inhibition of IL-6 release at two (10 and 100 μM) of the four doses tested | no effect | no effect | unaffected | no activity | Neither, P32 or P59 could recruit β-arrestin 2 via C5a1
